Reference: patent publication US9040673B2, “Synthesis and identification of novel RSK-specific inhibitors” (University of Virginia Patent Foundation, priority 2009, dated 2015)
pEC50: −log10 of the molar value.

How the values were obtained:
CaLu-1 cells = assay: CaLu-1 wound migration assay; format: cell-based, human; conditions: 60 μM, 24 hr after wounding
Description: CaLu-1 cells were sub-cultured to confluence in 35-mm plates. […] Scratches were made in the monolayer of cells using sterile, disposable micropipette tips. Images were captured either immediately following the wounding, 6 hr, or 24 hours after wounding. At the point of wounding, the cells at the wound edge show increased light refraction indicating damage. By 6 hr after wounding, the vehicle-treated cells at the wound edge present wide lamella (indicated by arrows) extending toward the direction of the wound. […] At 24 hr, the vehicle-treated cells have migrated into the wound and are enlarged to re-form the confluent monolayer.

[1] = tested on: mouse primary peritoneal macrophages; assay: LPS-induced iNOS expression in primary peritoneal macrophages; format: cell-based; conditions: 60 μM, 1 μg/ml LPS, 24 hours
MCF-7 cells = assay: MCF-7 cell proliferation (CellTiter-Glo cell viability); format: cell-based, human
macrophages = format: cell-based
J774A.1 cells = assay: LPS-stimulated factor expression in J774A.1 cells (immunoblot); format: cell-based, murine; conditions: 60 μM, 1 μg/ml LPS, 24 hours
Description: FIGS. 2A & 2B Analysis of LPS stimulated cytokine expression. […] Reactions were terminated with 2×-SDS lysis buffer at indicated time points and the lysates were immunoblotted.
FIGS. 3A & 3B RSK inhibition abrogates LPS-induced iNOS expression. […] Twenty-four hours after treatment, reactions were terminated with 2×-SDS lysis buffer and the lysates were immunoblotted.
LPS activation of macrophages results in secretion of factors that stimulate the innate immune system. […] Twenty-four hours after LPS treatment the cells were lysed as previously described (Traish, et al., 1998. J. Biol. Chem. 273:13317-13323) in preparation for immunoblot analysis. Expression of the pro-inflammatory factors, TNFα, IL-1b, the anti-inflammatory factor, IL-10 and inducible nitric oxide synthase was examined by immunoblot of the cell lysates.

HUVEC cells [2] = assay: HUVEC cell growth; format: cell-based, human
p140, a RSK substrate [3] = assay: PDB-induced p140 phosphorylation in MCF-10A cells (immunoblot); format: cell-based, human
Description: (§1) To determine whether SL0101-1 inhibits RSK in intact cells, phosphorylation of p140, a RSK substrate of unknown function, was examined in a human breast cancer cell line, MCF-7. MCF-7 and MCF-10A cells were pre-incubated with vehicle, 50 μM U0126 or the indicated concentration of SL0101-1 for 3 hr (FIG. 8D). Cells were treated with 500 nM PDB for 30 min prior to lysis. Protein concentration of lysates was measured and lysates were electrophoresed, transferred and immunoblotted. […] Pre-incubation of cells with 100 μM SL0101-1 abrogates phorbol dibutyrate (PDB)-induced p140 phosphorylation as does 50 μM U0126, a MEK inhibitor.
(§2) Cell Culture. For proliferation studies cells were seeded at 2500 to 5000 cells per well in 96 well tissue culture plates in the appropriate medium as described by American Type Culture Collection. After 24 hr, the medium was replaced with medium containing compound or vehicle as indicated. Cell viability was measured at indicated time points using CellTiter-Glo™ assay reagent (Promega) according to manufacturer's protocol. For in vivo inhibition studies, cells were seeded at 2.5×10^5 cells/well in 12 well cell culture clusters. After 24 hr, the cells were serum starved for 24 hr then incubated with compound or vehicle for 3 hr prior to a 30 min PDB stimulation. Cells were lysed as previously described (J. Biol. Chem. 273, 13317-13323 (1998)). […]

p140, a RSK substrate [4] = assay: p140 phosphorylation in LNCaP line (anti-RPM antibody); format: cell-based, human
Description: The ability of SL0101-1 to inhibit the proliferation of the androgen-dependent human prostate line, LNCaP was tested. […] To investigate the RSK signal transduction pathway in the LNCaP line, a phosphospecific antibody to a RSK phosphorylation motif (RPM) was produced. Only a few downstream effectors of RSK have been identified and therefore, applicants anticipated that an anti-RPM antibody would be a very effective tool for identifying novel RSK substrates in vivo. An anti-RPM antibody has previously been reported that recognizes the RSK substrate, p140, a protein of unknown function. […] All lysates were normalized to each other using an anti-Ran antibody. Ran is used for normalization based on the observations that it is a general housekeeping protein, the activity or expression levels of which are not known to vary in any disease state.

MAPK, MEK, Raf and PKC = assay: effect on upstream kinases of PDB-stimulated RSK phosphorylation in intact cells (immunoblot); format: cell-based, human
Description: as §1, §2

p140, a RSK substrate [5] = assay: PDB-induced p140 phosphorylation in MCF-7 cells (immunoblot); format: cell-based, human; conditions: 100 μM, 3 hr pre-incubation, 500 nM PDB 30 min
Description: as §1, §2

HUVEC cells [6] = assay: VEGF-induced capillary network formation in HUVEC cells; format: cell-based, human; conditions: 60 μM, 10 ng/ml VEGF, 20 hours
Description: Interfering with tube formation is a characteristic common to anti-angiogenic treatments. HUVEC cells were seeded at a density of 1×10^5 cells per well in 24-well culture dishes coated in growth factor-reduced Matrigel (BD Biosciences). […] The cells were incubated at 37° C. for 20 hours. Images of the cells were captured for analysis of the capillary-like network.

[7] = tested on: Ha-Ras transformed NIH/3T3 cells; assay: proliferation of Ha-Ras transformed NIH/3T3 cells; format: cell-based
Description: FIGS. 7A & 7B. SL0101-1 inhibition of cell proliferation is reversible. FIG. 7A: Ha-Ras-transformed cells were treated with vehicle or 50 μM SL0101-1. After 48 hr the medium was replaced and cells previously incubated with vehicle were maintained in vehicle. Cells that had previously been incubated with SL0101-1 were treated with either SL0101-1 or vehicle (washout). Cell viability was measured 48 hr later. FIG. 7B: Determination of siRNA to inhibit cancer cell proliferation. Duplex siRNAs to a sequence in the bluescript plasmid (Control), RSK1, RSK2 or RSK1 and RSK2 were transfected into MCF-7 cells. Medium was replaced 24 hr post-transfection and the cells incubated for an additional 48 hr prior to measuring cell viability.
The importance of MAPK to proliferation and oncogenesis is well established. However, the role that RSK plays in these processes has not been examined. […] SL0101-1 produced striking morphology changes in the transformed cells but not in the parental cell line. The vehicle control treated Ha-Ras transformed cells were elongated whereas in response to SL0101-1 the cells became much larger and flatter, appearing more like the parental cells, or like Ha-Ras transformed cells treated with U0126.
Cell Culture. […] Cell viability was measured at indicated time points using CellTiter-Glo™ assay reagent (Promega) according to manufacturer's protocol. […]

CC(=O)O[C@@H]1[C@@H](OC(C)=O)[C@@H](O)[C@H](Oc2c(-c3ccc(O)cc3)oc3cc(O)cc(O)c3c2=O)O[C@H]1C [SL0101, kaempferol 3-O-(3″,4″-di-O-acetyl-α-L-rhamnopyranoside)]
migration of Calu-1 cells into wound (CaLu-1 cells): have not migrated to close the wound | LPS-induced iNOS expression [1]: abrogates iNOS expression | inhibition of MCF-7 cell growth (MCF-7 cells; 50 uM): similarly effective at inhibiting MCF-7 cell growth | proliferation of MCF-7 cells (MCF-7 cells; 50 μM (FIG. 8A)): inhibited proliferation | pEC50 (MCF-7 cells; Homo sapiens, MCF7, read-out: EC50 of MCF-7 cell proliferation inhibition): ~4.30 | Y. pseudotuberculosis-induced actin rearrangement (macrophages): actin rearrangement is not observed | LPS-induced iNOS expression (J774A.1 cells): abrogated the induction of iNOS expression | expression of TNFα, IL-1b, IL-10 (J774A.1 cells): did not alter the expression | rate of HUVEC cell growth (HUVEC cells [2]): does not alter the rate of HUVEC cell growth | PDB-induced p140 phosphorylation (p140, a RSK substrate [3]): prevented the PDB-induced p140 phosphorylation | phosphorylation of p140 (p140, a RSK substrate [4]): decrease the phosphorylation of p140 | phosphorylation of RSK2 (MAPK, MEK, Raf and PKC): does not effect the phosphorylation of RSK2 | PDB-induced p140 phosphorylation (p140, a RSK substrate [5]): abrogates | capillary-like network formation (HUVEC cells [6]): indistinguishable from those treated with SU1498 | growth rate of Ha-Ras transformed cells [7]: decreased the growth rate | reversibility of growth inhibition (washout) ([7]; 50 μM for 48 hr, then washout, viability 48 hr later): Removal of SL0101-1 resulted in growth of the transformed cells
